Experimental data taken from ChEMBL document CHEMBL1143900, “Tetrazole-biarylpyrazole derivatives as cannabinoid CB1 receptor antagonists” (Bioorg Med Chem Lett, 2008).

What was measured:
Cannabinoid receptor 1 = Cannabinoid receptor 1 (Rattus norvegicus, UniProt P20272); assay: Inhibition of cannabinoid CB1 receptor in Sprague-Dawley rat brain
Cannabinoid receptor 2 = Cannabinoid receptor 2 (Homo sapiens, UniProt P34972); assay: Displacement of [3H]WIN-55212-2 from human cannabinoid CB2 receptor expressed in CHO cells; type: cell-based
Chain of Cannabinoid receptor 2 (P34972 whole entry): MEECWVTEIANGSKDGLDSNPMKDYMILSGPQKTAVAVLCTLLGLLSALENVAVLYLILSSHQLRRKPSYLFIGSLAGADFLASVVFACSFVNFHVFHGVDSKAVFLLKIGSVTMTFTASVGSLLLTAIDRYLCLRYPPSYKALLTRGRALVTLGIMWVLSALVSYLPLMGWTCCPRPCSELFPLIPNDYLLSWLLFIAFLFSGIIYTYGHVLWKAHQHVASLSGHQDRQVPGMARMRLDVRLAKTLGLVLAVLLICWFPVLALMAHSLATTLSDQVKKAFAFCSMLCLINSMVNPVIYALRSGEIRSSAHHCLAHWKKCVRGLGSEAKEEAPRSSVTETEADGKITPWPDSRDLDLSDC

[1] = Selectivity ratio of IC50 for Sprague-Dawley rat CB1 receptor over IC50 for human CB2 receptor

Chain of Cannabinoid receptor 1 (P20272 whole entry): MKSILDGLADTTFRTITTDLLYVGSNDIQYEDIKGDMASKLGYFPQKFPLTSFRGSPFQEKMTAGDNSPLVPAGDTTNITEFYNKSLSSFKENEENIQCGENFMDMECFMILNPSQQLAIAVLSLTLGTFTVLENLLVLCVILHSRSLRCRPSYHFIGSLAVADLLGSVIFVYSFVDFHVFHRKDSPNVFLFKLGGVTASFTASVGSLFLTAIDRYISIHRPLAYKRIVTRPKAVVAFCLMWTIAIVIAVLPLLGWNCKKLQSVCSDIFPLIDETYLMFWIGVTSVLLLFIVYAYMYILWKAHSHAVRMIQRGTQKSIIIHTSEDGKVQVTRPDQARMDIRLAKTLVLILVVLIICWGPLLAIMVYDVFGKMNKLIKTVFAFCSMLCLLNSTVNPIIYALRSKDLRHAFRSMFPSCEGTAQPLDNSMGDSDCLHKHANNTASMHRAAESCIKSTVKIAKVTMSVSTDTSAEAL

Row | SMILES | IC50 (Cannabinoid receptor 1) | IC50 (Cannabinoid receptor 2) | Ratio IC50 [1]
1 | CCCCCCCCn1nnc(-c2nn(-c3ccc(Cl)cc3Cl)c(-c3ccc(Cl)cc3)c2C)n1 | 0.0506 µM | – | –
2 | Cc1c(-c2nnnn2C2CCCCCC2)nn(-c2ccc(Cl)cc2Cl)c1-c1ccc(Br)cc1 | – | > 10 µM | –
3 | CCc1c(-c2nnnn2C2CCCC2)nn(-c2ccc(Cl)cc2Cl)c1-c1ccc(Cl)cc1 | – | 0.84 µM | –
4 | CCCCCCCCn1nnnc1-c1nn(-c2ccc(Cl)cc2Cl)c(-c2ccc(Cl)cc2)c1C | 0.0473 µM | – | –
5 | CCc1c(-c2nnnn2C2CCCC2)nn(-c2ccc(Cl)cc2Cl)c1-c1ccc(Br)cc1 | – | 1.93 µM | –
6 | Cc1c(-c2nnnn2C2CCCC2)nn(-c2ccc(Cl)cc2Cl)c1-c1ccc(Br)cc1 | – | 4.24 µM | 366
7 | Cc1c(-c2nnnn2C2CCCC2)nn(-c2ccc(Cl)cc2Cl)c1-c1ccc(Cl)cc1 | – | > 10 µM | –

Second part, led by results:

Row | IC50 (Cannabinoid receptor 1) | SMILES | IC50 (Cannabinoid receptor 2) | Ratio IC50 [1]
8 | 0.0877 µM | CCCCn1nnc(-c2nn(-c3ccc(Cl)cc3Cl)c(-c3ccc(Cl)cc3)c2C)n1 | – | –
9 | 0.0878 µM | CCCCn1nnnc1-c1nn(-c2ccc(Cl)cc2Cl)c(-c2ccc(Cl)cc2)c1C | – | –
10 | 0.361 µM | Cc1c(-c2nnnn2C(C)(C)C)nn(-c2ccc(Cl)cc2Cl)c1-c1ccc(Cl)cc1 | – | –
11 | 0.0267 µM | Cc1c(-c2nnnn2C2CCCCCC2)nn(-c2ccc(Cl)cc2Cl)c1-c1ccc(Cl)cc1 | 0.818 µM | –
12 | > 1 µM | CCn1nnc(-c2nn(-c3ccc(Cl)cc3Cl)c(-c3ccc(Cl)cc3)c2C)n1 | – | –
13 | > 1 µM | Cc1c(-c2nnn(C)n2)nn(-c2ccc(Cl)cc2Cl)c1-c1ccc(Cl)cc1 | – | –
14 | 0.0943 µM | Cc1c(-c2nnnn2Cc2ccccc2)nn(-c2ccc(Cl)cc2Cl)c1-c1ccc(Cl)cc1 | – | –
15 | 1.06 µM | Cc1c(-c2nnnn2C)nn(-c2ccc(Cl)cc2Cl)c1-c1ccc(Cl)cc1 | – | –
16 | 0.0338 µM | Cc1c(-c2nnnn2-c2ccccc2)nn(-c2ccc(Cl)cc2Cl)c1-c1ccc(Cl)cc1 | – | –
